# Reference: patent publication US3985875A, “ω-(N-acylamino)alkylphosphoryl ethanolamines, pharmaceutical compositions containing them, and their uses” (Dainippon Pharmaceutical Co., Ltd., priority 1974, dated 1976)
# Like-named read-outs stand apart in the source and are kept apart here.
# Experiments:
# [1] = target: T1, Renin (Homo sapiens, UniProt P00797); test: Renin-inhibitory activity, Method I (inhibition of Angiotensin I formation, RIA); assay type: biochemical; details: for inhibition at 1250 µg/mL: 1.25 mg/ml; for inhibition at 313 µg/mL: 0.313 mg/ml; for inhibition at 625 µg/mL: 0.625 mg/ml; for inhibition at 2500 µg/mL: 2.5 mg/ml
# T1 sequence (P00797 67-406): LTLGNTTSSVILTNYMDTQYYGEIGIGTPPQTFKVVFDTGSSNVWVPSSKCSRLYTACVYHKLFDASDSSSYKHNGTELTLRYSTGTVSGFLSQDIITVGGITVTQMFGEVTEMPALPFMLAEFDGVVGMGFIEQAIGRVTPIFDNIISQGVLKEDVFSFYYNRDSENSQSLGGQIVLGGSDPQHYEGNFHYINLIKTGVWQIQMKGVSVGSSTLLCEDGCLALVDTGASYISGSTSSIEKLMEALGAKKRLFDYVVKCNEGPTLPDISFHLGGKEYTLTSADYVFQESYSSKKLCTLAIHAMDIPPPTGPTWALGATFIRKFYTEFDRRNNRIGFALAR
# Method: Renin (see E. Haas et al. Circulation Research, Vol. 19, p. 739, 1966 and Vol. 31, p. 65, 1972) was incubated in Angiotensinogen at 37° C. for 2 to 6 hours. Similarly, renin was incubated under the same conditions in the presence of 0.313 to 2.5 mg/ml. of each of the test compounds listed above. The amount of Angiotensin I was measured by radioimmunoassay (RIA) (E. Haber et al., J. Clin. Endocrinol., Vol. 29, p. 1349, 1969), and made the renin activity.
# (§1) The results are shown in Table 1 (the rate of inhibiting the formation of Angiotensin I, as determined by Method I, when the plasma was incubated at 37° C. for 2, 4 and 6 hours respectively), and Table 2 (the rate of inhibiting the formation of Angiotensin I when the plasma was incubated at 37° C. for 4 hours, with the compound concentration of 1.25 mg/ml.)
# [2] = target: T2, High renin plasma (Canis lupus familiaris, UniProt Q6DYE7); test: Renin-inhibitory activity, Method II (high renin plasma of dog, inhibition of Angiotensin I formation); assay type: biochemical; details: Table 2; 37°C, 4 hours, 1.25 mg/ml; read-out: Rate of inhibiting the formation of Angiotensin I determined by Method II
# T2 construct: High renin plasma prepared by constriction of the renal artery of a dog anesthetized with Nembutal; from tissue; host or cells: plasma of a dog with constricted renal artery
# T2 sequence (Q6DYE7 66-403): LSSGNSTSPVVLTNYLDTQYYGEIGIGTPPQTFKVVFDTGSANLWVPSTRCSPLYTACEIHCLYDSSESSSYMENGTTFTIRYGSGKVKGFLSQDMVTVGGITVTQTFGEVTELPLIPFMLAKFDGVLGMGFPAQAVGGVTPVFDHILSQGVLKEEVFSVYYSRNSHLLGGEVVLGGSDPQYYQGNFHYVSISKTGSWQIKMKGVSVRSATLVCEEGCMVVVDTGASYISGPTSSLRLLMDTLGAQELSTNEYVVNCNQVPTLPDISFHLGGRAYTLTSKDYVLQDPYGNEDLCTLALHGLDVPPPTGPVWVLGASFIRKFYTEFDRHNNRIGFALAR
# Method: High renin plasma prepared by constriction of the renal artery of a dog anesthetized with Nembutal (the plasma which when incubated at 37°40 C. for 6 hours, yields 30 to […]. of Angiotensin I) was incubated at 37° C. for 2 to 6 hours in the same way as in Method I, and also under the same conditions in the presence of 1.25 mg/ml. of each of the test compounds.
# as §1
# [3] = test system: renal hypertensive rats; test: Antihypertensive activity in renal hypertensive rats, i.m. (Table 3); assay type: in vivo, rat; details: 30 mg/kg/day i.m.
# Method: (§2) An aqueous solution or suspension in peanut oil of each test compound as administered intramuscularly (i.m.) or orally (p.o.) at a dose of 30 to 100 mg/kg (body weight)/day once every morning over the period of 6 to 7 days.
# (§3) The blood pressure of each rat was measured daily before and 5 hours after each administration. Furthermore, the blood pressure was measured every morning after drug withdrawal over a period of 3 to 6 days.
# (§4) Test compounds (1)-(4) decreased the blood pressure of renal hypertensive rats with a dose of 30 mg/kg/day i.m.. […] The antihypertensive rats with a dose of 100 mg/kg/day p.o..
# [4] = test system: plasma cholesterol level; test: Cholesterol-lowering activity in rats (modified Greenberg method); assay type: in vivo, rat; details: 100 mg/Kg oral once a day, 5 consecutive days
# Method: The effect of each of the test compounds on the plasma cholesterol level was examined in rats according to a slightly modified form of the C. M. Greenberg et al. method described in Am. J. Physiol., Vol. 202 (1961), p. 732. Rats were treated once a day with a 100 mg/Kg oral dose for 5 consecutive days instead of 7 days.
# [5] = test system: renal hypertensive rats; test: Antihypertensive activity in rats, p.o. (Table 4); assay type: in vivo, rat; details: 100 mg/kg/day p.o.
# Method: as §2, §3, §4
# [6] = Table 2, 37°C, 4 hours, read-out: Rate of inhibiting the formation of Angiotensin I determined by Method I
# [7] = 1st day, 0 h (immediately before administration)
# [8] = 1st day, 5 hours after administration
# [9] = 2nd day, 0 h (immediately before administration)
# [10] = 2nd day, 5 hours after administration
# [11] = 3rd day, 0 h (immediately before administration)
# [12] = 3rd day, 5 hours after administration
# [13] = 4th day, 0 h (immediately before administration)
# [14] = 4th day, 5 hours after administration
# [15] = 5th day, 0 h (immediately before administration)
# [16] = 5th day, 5 hours after administration
# [17] = 6th day, 0 h (immediately before administration)
# [18] = 6th day, 5 hours after administration
# [19] = incubating time 2 hours, read-out: Rate of inhibiting the formation of Angiotensin I
# [20] = incubating time 4 hours, read-out: Rate of inhibiting the formation of Angiotensin I
# [21] = incubating time 6 hours, read-out: Rate of inhibiting the formation of Angiotensin I
smiles,measurement,setting,value
"CCC=CCC=CCC=CCCCCCCCC(=O)OCC(COP(=O)(O)OCCN)OC(=O)CCCCCCCCCCCCCCCCC (racemic) [(b), rac-2-Octadecanoyl-3-(octadeca-9,12,15-trienoyl)glycero-1-phosphoryl ethanolamine, reference compound]",inhibition at 1250 µg/mL,[1]; [6],< 10%
same,inhibition at 1250 µg/mL,[2],25%
same,Changes of blood pressure after drug withdrawal,[3]; 1st day after withdrawal,-11 mmHg
same,Changes of blood pressure,[3]; [7],0 mmHg
same,Changes of blood pressure,[3]; [8],-32 mmHg
same,Changes of blood pressure after drug withdrawal,[3]; 2nd day after withdrawal,-2 mmHg
same,Changes of blood pressure,[3]; [9],-4 mmHg
same,Changes of blood pressure,[3]; [10],-25 mmHg
same,Changes of blood pressure after drug withdrawal,[3]; 3rd day after withdrawal,-1 mmHg
same,Changes of blood pressure,[3]; [11],-8 mmHg
same,Changes of blood pressure,[3]; [12],-34 mmHg
same,Changes of blood pressure,[3]; [13],-7 mmHg
same,Changes of blood pressure,[3]; [14],-39 mmHg
same,Changes of blood pressure,[3]; [15],-8 mmHg
same,Changes of blood pressure,[3]; [16],-44 mmHg
same,Changes of blood pressure,[3]; [17],-10 mmHg
same,Changes of blood pressure,[3]; [18],-47 mmHg
same,Cholesterol-lowering activity,[4],0%
"CC(Oc1ccc(Oc2ccc(Cl)cc2)cc1)C(=O)NCCOP(=O)(O)OCCN (stereo not drawn) [Compound (6), 2-{α-[4-(4'-chlorophenoxy)phenoxy]propionylamino} ethylphosphoryl ethanolamine]",inhibition at 313 µg/mL,[1]; [19],25%
same,inhibition at 313 µg/mL,[1]; [20],33%
same,inhibition at 313 µg/mL,[1]; [21],33%
same,inhibition at 625 µg/mL,[1]; [19],50%
same,inhibition at 625 µg/mL,[1]; [20],56%
same,inhibition at 625 µg/mL,[1]; [21],53%
same,inhibition at 1250 µg/mL,[1]; [19],75%
same,inhibition at 1250 µg/mL,[1]; [20],78%
same,inhibition at 1250 µg/mL,[1]; [21],67%
same,inhibition at 2500 µg/mL,[1]; [19],100%
same,inhibition at 2500 µg/mL,[1]; [20],93%
same,inhibition at 2500 µg/mL,[1]; [21],89%
same,inhibition at 1250 µg/mL,[1]; [6],78%
same,inhibition at 1250 µg/mL,[2],55%
same,Changes of blood pressure after drug withdrawal,[5]; 1st day after withdrawal,-37 mmHg
same,Changes of blood pressure,[5]; [7],0 mmHg
same,Changes of blood pressure,[5]; [8],-9 mmHg
same,Changes of blood pressure after drug withdrawal,[5]; 2nd day after withdrawal,-32 mmHg
same,Changes of blood pressure,[5]; [9],+4 mmHg
same,Changes of blood pressure,[5]; [10],-4 mmHg
same,Changes of blood pressure after drug withdrawal,[5]; 3rd day after withdrawal,-18 mmHg
same,Changes of blood pressure,[5]; [11],-14 mmHg
same,Changes of blood pressure,[5]; [12],-25 mmHg
same,Changes of blood pressure after drug withdrawal,[5]; 4th day after withdrawal,-8 mmHg
same,Changes of blood pressure,[5]; [13],-18 mmHg
same,Changes of blood pressure,[5]; [14],-27 mmHg
same,Changes of blood pressure after drug withdrawal,[5]; 5th day after withdrawal,-2 mmHg
same,Changes of blood pressure,[5]; [15],-27 mmHg
same,Changes of blood pressure,[5]; [16],-41 mmHg
same,Changes of blood pressure after drug withdrawal,[5]; 6th day after withdrawal,+1 mmHg
same,Changes of blood pressure,[5]; [17],-34 mmHg
same,Changes of blood pressure,[5]; [18],-47 mmHg
same,Changes of blood pressure,"[5]; 7th day, 0 h (immediately before administration)",-36 mmHg
same,Changes of blood pressure,"[5]; 7th day, 5 hours after administration",-51 mmHg
same,Cholesterol-lowering activity,[4],48.1%
